This assay addresses T1, mouse c-fms (Mus musculus, UniProt P09581).
T1 construct: Macrophage-like cell line BAC-1.2F5 which expresses c-fms as a M-CSF receptor on cell membranes; endogenous in cells; host or cells: BAC-1.2F5 mouse macrophage-like cell line
T1 sequence (P09581 20-977): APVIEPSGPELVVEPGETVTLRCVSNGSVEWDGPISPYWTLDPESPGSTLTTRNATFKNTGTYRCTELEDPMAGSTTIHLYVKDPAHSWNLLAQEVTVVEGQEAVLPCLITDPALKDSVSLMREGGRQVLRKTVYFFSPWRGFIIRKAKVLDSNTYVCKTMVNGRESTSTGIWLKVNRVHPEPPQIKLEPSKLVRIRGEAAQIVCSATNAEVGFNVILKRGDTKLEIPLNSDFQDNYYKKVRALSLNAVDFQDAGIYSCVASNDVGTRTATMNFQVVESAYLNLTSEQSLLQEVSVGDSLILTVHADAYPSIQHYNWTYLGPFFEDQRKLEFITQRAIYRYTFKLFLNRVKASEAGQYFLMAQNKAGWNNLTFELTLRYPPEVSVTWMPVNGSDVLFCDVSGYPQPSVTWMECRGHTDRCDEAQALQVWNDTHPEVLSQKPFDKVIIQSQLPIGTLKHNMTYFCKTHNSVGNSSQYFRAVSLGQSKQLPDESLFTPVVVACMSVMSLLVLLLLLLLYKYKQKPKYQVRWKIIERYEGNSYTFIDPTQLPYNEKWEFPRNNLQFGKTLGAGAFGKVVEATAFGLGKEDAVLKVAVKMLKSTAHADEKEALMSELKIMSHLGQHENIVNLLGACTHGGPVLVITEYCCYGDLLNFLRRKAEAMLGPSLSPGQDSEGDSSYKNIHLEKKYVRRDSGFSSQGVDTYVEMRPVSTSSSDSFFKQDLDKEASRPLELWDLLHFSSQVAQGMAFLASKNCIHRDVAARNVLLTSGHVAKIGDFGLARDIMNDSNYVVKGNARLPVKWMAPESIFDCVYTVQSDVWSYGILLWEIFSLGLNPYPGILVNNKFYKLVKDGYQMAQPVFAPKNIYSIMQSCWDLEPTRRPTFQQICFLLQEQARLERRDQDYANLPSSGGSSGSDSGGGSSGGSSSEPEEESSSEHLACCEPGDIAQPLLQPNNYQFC
The assay is described as follows: Inhibition of c-fms autophosphorylation in macrophage-like cell line BAC-1.2F5 by M-CSF stimulation (ELISA). Type of assay: cell-based. The conditions noted are these: BAC-1.2F5 cells, human recombinant M-CSF 50 ng/ml, read-out: c-fms autophosphorylation 50% inhibitory concentration (IC50). As for the experimental part:
Macrophage-like cell line BAC-1.2F5 which expresses c-fms as a M-CSF receptor on cell membranes (CLAUDIA M. et al., J. Cell. Physiol., 130, 420-427 (1987), “Isolation and Characterization of a Cloned Growth Factor Dependent Macrophage Cell Line, BAC1.2F5”) was cultured at 37° C. in a DMEM medium containing L-cell supernatant and 10% fetal calf serum (GIBCO BRL) in a 5% CO2 incubator until about 50 to 70% confluent. The harvested cells were inoculated into wells, each containing the same medium, in a collagen type I coat 96-well flat-bottom plate in an amount of 5.0×10^4 per well, and cultured at 37° C. for 12 hr. Thereafter, the medium was replaced with a DMEM medium containing a 0.1% fetal calf serum and cultured for 12 hr. Thereafter, a test compound dissolved in dimethyl sulfoxide was added to each well, and cells were incubated at 37° C. for one hr. Human recombinant M-CSF was added to a final concentration of 50 ng/ml, and cells were stimulated at 37° C. for 6 min. After the medium was removed, 50 μl of a solubilization buffer (20 mM HEPES (pH 7.4), 150 mM NaCl, 0.2% Triton X-100, 10% glycerol, 5 mM sodium orthovanadylate, 5 mM disodium ethylenediaminetetraacetate, and 2 mM Na4P2O7) was added thereto. The mixture was shaken at 4° C. for 2 hr to prepare a cell extract as an assay sample which was then used for an ELISA assay.
The plate for the ELISA assay was prepared as follows. Phosphate buffered saline (50 μl, pH 7.4) containing 5 μg/ml of anti-phospho-tyrosine antibody (PY20; Transduction Laboratories) was added to a microplate for ELISA (Maxisorp; purchased from NUNC), followed by standing at 4° C. overnight to be immobilized on the wells. Thereafter, each well was washed twice with 200 μl of a Ca- and Mg-free phosphate buffer containing 0.1% Tween-20 (hereinafter referred to as “PBS-T”), and 200 μl of a blocking solution (Dainippon Pharmaceutical Co. Ltd.: BlockAce) was added to each well, and the wells were then allowed to stand at room temperature for 2 hr for blocking.
Separately, phosphate buffered saline (50 μl, pH 7.4) containing 5 μg/ml of anti-phospho-tyrosine antibody (PY20; Transduction Laboratories) was added to a microplate for ELISA (Maxisorp; purchased from NUNC), followed by standing at 4° C. overnight to form a solid phase on the wells. After washing of the plate, 300 μl of a blocking solution was added, followed by standing at room temperature for 2 hr to perform blocking. After washing, the whole quantity of the cell extract was transferred to the wells, and the plate was then allowed to stand at 4° C. overnight. After washing, anti-c-fms antiserum (Upstate Biotechnology, Inc.) was allowed to react at room temperature for one hr, and, after washing, a peroxidase-labeled anti-rabbit Ig antibody (Amersham) was allowed to react at room temperature for one hr. After washing, a chromophoric substrate for peroxidase (Sumitomo Bakelite Co., Ltd.) was added thereto to initiate a reaction. After a suitable level of color development, a reaction termination solution was added to stop the reaction, and the absorbance at 450 nm was measured with a microplate reader. The c-fms phosphorylation activity for each well was determined by presuming the absorbance without the addition of the test compound and with the addition of M-CSF to be 100% c-fms phosphorylation activity and the absorbance without the addition of the test compound and M-CSF to be 0% c-fms phosphorylation activity. The concentration of the test compound was varied on several levels, the c-fms phosphorylation inhibitory rate was determined for each case, and the concentration of the test compound necessary for inhibiting 50% of c-fms phosphorylation (IC50) was calculated.
(In general: In an ELISA, binding on a coated surface is turned into a signal by an enzyme label.)

pIC50: −log10 of the molar value.

`CC[C@H](NC(=O)Nc1ccc(Oc2ccnc3cc(OC)c(OC)cc23)cc1)c1ccccc1` [Example 37, N-{4-[(6,7-Dimethoxy-4-quinolyl)oxy]phenyl}-N′-[(1S)-1-phenylpropyl]urea]: the pIC50 was 8.30. Consider `CC[C@@H](NC(=O)Nc1ccc(Oc2ccnc3cc(OC)c(OC)cc23)cc1)c1ccccc1` [Example 38, N-{4-[(6,7-Dimethoxy-4-quinolyl)oxy]phenyl}-N′-[(1R)-1-phenylpropyl]urea], for which the pIC50 was 8.24.

Regarding `COc1cc2nccc(Oc3ccc(NC(=O)N[C@H]4CCc5ccccc54)cc3)c2cc1OC` [Example 43, N-[(1S)-2,3-Dihydro-1H-1-indenyl]-N′-{4-[(6,7-dimethoxy-4-quinolyl)oxy]phenyl}urea], the pIC50 was 8.51. In the case of `COc1cc2nccc(Oc3ccc(NC(=O)N[C@@H]4CCc5ccccc54)cc3)c2cc1OC` [Example 44, N-[(1R)-2,3-Dihydro-1H-1-indenyl]-N′-{4-[(6,7-dimethoxy-4-quinolyl)oxy]phenyl}urea], the pIC50 was 8.74.

`COc1cc(Oc2ccnc3cc(OC)c(OC)cc23)ccc1NC(=O)N[C@@H](C)c1nccs1` [Example 75, N-{4-[(6,7-Dimethoxy-4-quinolyl)oxy]-2-methoxyphenyl}-N′-[(1S)-1-(1,3-thiazol-2-yl)ethyl]urea]: the pIC50 was 8.68. As for `COc1cc(Oc2ccnc3cc(OC)c(OC)cc23)ccc1NC(=O)N[C@H](C)c1nccs1` [Example 76, N-{4-[(6,7-Dimethoxy-4-quinolyl)oxy]-2-methoxyphenyl}-N′-[(1R)-1-(1,3-thiazol-2-yl)ethyl]urea], the pIC50 was 8.15. Take `COc1cc2nccc(Oc3ccc(NC(=O)NC(C)c4nc(C)c(C)s4)cc3)c2cc1OC` (centres unmarked) [Example 94, N-{4-[(6,7-Dimethoxy-4-quinolyl)oxy]phenyl}-N′-[1-(4,5-dimethyl-1,3-thiazol-2-yl)ethyl]urea]: the pIC50 is 7.27.

Take `COc1cc2nccc(Oc3ccc(NC(=O)NC(C)c4nc(C)c(C)s4)c(F)c3)c2cc1OC` (centres unmarked) [Example 95, N-{4-[(6,7-Dimethoxy-4-quinolyl)oxy]-2-fluorophenyl}-N′-[1-(4,5-dimethyl-1,3-thiazol-2-yl)ethyl]urea]: the pIC50 is 7.42.

In the case of `COc1cc2nccc(Oc3ccc(NC(=O)NC(C)c4nc(C)c(C)s4)c(C)c3)c2cc1OC` (centres unmarked) [Example 96, N-{4-[(6,7-Dimethoxy-4-quinolyl)oxy]-2-methylphenyl}-N′-[1-(4,5-dimethyl-1,3-thiazol-2-yl)ethyl]urea], the pIC50 was 6.83. For `COc1cc2nccc(Oc3ccc(NC(=O)NC(C)c4nc(C)c(C)s4)c(C(F)(F)F)c3)c2cc1OC` (centres unmarked) [Example 97, N-[4-[(6,7-Dimethoxy-4-quinolyl)oxy]-2-(trifluoromethyl)phenyl]-N′-[1-(4,5-dimethyl-1,3-thiazol-2-yl)ethyl]urea] the value was 6.92; for `COc1cc2nccc(Oc3cc(C)c(NC(=O)NC(C)c4nc(C)c(C)s4)cc3C)c2cc1OC` (centres unmarked) [Example 98, N-{4-[(6,7-Dimethoxy-4-quinolyl)oxy]-2,5-dimethylphenyl}-N′-[1-(4,5-dimethyl-1,3-thiazol-2-yl)ethyl]urea], 6.37.

The values are drawn from US7598258B2, “Quinoline derivatives and quinazoline derivatives inhibiting autophosphorylation of macrophage colony stimulating factor receptor” (Kirin Beer Kabushiki Kaisha, priority 2002, dated 2009).
